Test results taken from the NIST ThermoML archive (doi:10.1007/s10765-005-8096-3).

Test: refractive index (Na D-line) (dimensionless); xn = mol fraction of the nth substance listed
Details: 101 kPa, Liquid, Standard Abbe refractometry

Cc1cc(C)cc(C)c1 [1,3,5-trimethylbenzene] + CCCCOC(C)=O
refractive index
Details	293.15 K	298.15 K	303.15 K	308.15 K	313.15 K
x2 = 0.0516	1.49409	1.4916	1.48907	1.48654	1.48399
x2 = 0.1002	1.48903	1.4866	1.48406	1.4816	1.47894
x2 = 0.1506	1.48392	1.48139	1.47885	1.47632	1.47373
x2 = 0.2009	1.4787	1.47618	1.47366	1.47112	1.4686
x2 = 0.2516	1.47339	1.4709	1.46844	1.46589	1.46337
x2 = 0.2995	1.4684	1.46588	1.46345	1.46088	1.45835
x2 = 0.3481	1.46333	1.46081	1.45838	1.4558	1.45332
x2 = 0.3998	1.4579	1.45539	1.45292	1.45039	1.44787
x2 = 0.4499	1.45266	1.45014	1.44772	1.44513	1.44264
x2 = 0.5012	1.44725	1.44474	1.44227	1.43973	1.43728
x2 = 0.5517	1.44194	1.43941	1.43693	1.43441	1.43194
x2 = 0.599	1.43693	1.4344	1.43191	1.42937	1.42693
x2 = 0.6518	1.43134	1.42882	1.42637	1.42379	1.42135
x2 = 0.702	1.42599	1.42348	1.42096	1.41847	1.41604
x2 = 0.7495	1.42089	1.41842	1.41595	1.41342	1.41096
x2 = 0.8007	1.41541	1.41296	1.4105	1.40803	1.40553
x2 = 0.8531	1.40984	1.40738	1.40488	1.40245	1.39998
x2 = 0.8998	1.40482	1.4024	1.39997	1.39751	1.39502
x2 = 0.9494	1.39954	1.3971	1.39467	1.39225	1.38972

CC(C)(C)c1ccccc1 [(1,1-dimethylethyl)benzene] + CCCCOC(C)=O
refractive index
Details	293.15 K	298.15 K	303.15 K	308.15 K	313.15 K
x2 = 0.0517	1.48818	1.48564	1.48328	1.48061	1.47812
x2 = 0.1	1.48411	1.48154	1.47905	1.47649	1.47384
x2 = 0.1522	1.4795	1.47702	1.47452	1.47204	1.46953
x2 = 0.1995	1.47531	1.47273	1.47031	1.4677	1.46521
x2 = 0.2511	1.47077	1.46811	1.4657	1.46309	1.46062
x2 = 0.3008	1.46621	1.4636	1.4612	1.45859	1.45614
x2 = 0.3516	1.46145	1.45891	1.45652	1.45387	1.45137
x2 = 0.4061	1.45636	1.45381	1.45141	1.4488	1.44635
x2 = 0.4489	1.45221	1.44966	1.44727	1.4447	1.44226
x2 = 0.4994	1.44728	1.44477	1.44234	1.43978	1.43736
x2 = 0.5499	1.44227	1.43976	1.43736	1.43476	1.43237
x2 = 0.607	1.43649	1.434	1.43155	1.42904	1.42656
x2 = 0.6496	1.43209	1.42958	1.42717	1.42461	1.42212
x2 = 0.7006	1.42687	1.42436	1.42195	1.41938	1.41686
x2 = 0.7489	1.42175	1.41927	1.41683	1.41427	1.41174
x2 = 0.8013	1.41615	1.41367	1.41122	1.40871	1.40625
x2 = 0.8509	1.41079	1.40829	1.40593	1.40331	1.4009
x2 = 0.9005	1.40535	1.40288	1.40048	1.39799	1.39547
x2 = 0.95	1.39982	1.39742	1.3949	1.39263	1.39007

CC(C)Cc1ccccc1 [(2-methylpropyl)benzene] + CCCCOC(C)=O
refractive index
Details	293.15 K	298.15 K	303.15 K	308.15 K	313.15 K
x2 = 0.056	1.48206	1.47965	1.47708	1.47442	1.47211
x2 = 0.1042	1.47812	1.47565	1.4731	1.47066	1.46813
x2 = 0.1619	1.47345	1.47097	1.4685	1.46595	1.4635
x2 = 0.201	1.47035	1.46781	1.46524	1.46268	1.46015
x2 = 0.2486	1.46644	1.46384	1.46128	1.45868	1.45618
x2 = 0.3027	1.4618	1.45922	1.45658	1.45405	1.45156
x2 = 0.3619	1.45664	1.45401	1.45147	1.44897	1.44641
x2 = 0.3994	1.4533	1.45072	1.44816	1.44564	1.4431
x2 = 0.4537	1.44838	1.44587	1.44328	1.44077	1.43826
x2 = 0.5056	1.44366	1.4411	1.43853	1.43602	1.43356
x2 = 0.5506	1.43942	1.43693	1.43443	1.43187	1.4294
x2 = 0.5973	1.43506	1.43254	1.43002	1.4275	1.42498
x2 = 0.6485	1.43012	1.42758	1.42505	1.42256	1.42003
x2 = 0.6954	1.42551	1.423	1.42052	1.41799	1.41549
x2 = 0.751	1.41999	1.41754	1.41506	1.41255	1.41004
x2 = 0.7981	1.41525	1.41278	1.4103	1.40782	1.40532
x2 = 0.8469	1.41021	1.40779	1.40535	1.4029	1.40036
x2 = 0.8995	1.40482	1.40235	1.39997	1.39757	1.39493
x2 = 0.9482	1.39966	1.3973	1.39479	1.39237	1.38994
